Assay results: US7452908B2, “Amide derivatives” (Banyu Pharmaceutical Co., Ltd., priority 1999, dated 2008)

How the values were obtained:
[1] = target: T1, human m3 muscarinic acetylcholine receptor expressed in CHO cells (Homo sapiens, UniProt P20309); experiment: Inhibition of [3H]-N-methylscopolamine binding to muscarinic m3 receptor; details: for Ki: human m3 in CHO cells, 0.2 nM [3H]-N-methylscopolamine; for Selectivity m1/m3: ratio of Ki m1 to Ki m3; for Selectivity m2/m3: ratio of Ki m2 to Ki m3; for Selectivity m4/m3: ratio of Ki m4 to Ki m3; for Selectivity m5/m3: ratio of Ki m5 to Ki m3
T1 construct: purchased Receptor Biology, Inc; host or cells: CHO cells
Experimental: (§1) These tests were performed according to a modification of the method of Hargreaves, et al. (Br. J. Pharmacol. 107: 494-501, 1992). Namely, muscarinic acetylcholine receptors of human m1, m2, m3, m4 and m5 expressed in CHO cells (Receptor Biology, Inc.) were incubated with 0.2 nM [^3H]-N-methylscopolamine (82Ci/mmol, New England Nuclear, Inc.) and a test compound to be tested in 0.5 ml of 50 mM Tris-HCl, 10 mM MgCl2, 1 mM EDTA solution (pH 7.4) for 120 minutes at room temperature (about 20-25° C.), followed by suction filtration over a glass filter (UniFilter plate-GF/C; Packard). Then the filter was washed four times with 1 ml of ice-cold Tris-HCl buffer and dried at 50° C. for an hour. After adding a scintillator (Microscinti 0; Packard), the radioactivity of [^3H]-N-methylscopolamine binding to the filter was counted with a microplate scintillation counter (TopCount™; Packard). Non-specific receptor binding of [^3H]-N-methylscopolamine was measured by adding 1 μM N-methylscopolamine.

[2] = target: T2, human m1 muscarinic acetylcholine receptor expressed in CHO cells (Homo sapiens, UniProt P11229); experiment: Inhibition of [3H]-N-methylscopolamine binding to muscarinic m1 receptor; details: 0.2 nM [3H]-N-methylscopolamine
T2 construct: purchased Receptor Biology, Inc; host or cells: CHO cells
T2 sequence (P11229 1-460): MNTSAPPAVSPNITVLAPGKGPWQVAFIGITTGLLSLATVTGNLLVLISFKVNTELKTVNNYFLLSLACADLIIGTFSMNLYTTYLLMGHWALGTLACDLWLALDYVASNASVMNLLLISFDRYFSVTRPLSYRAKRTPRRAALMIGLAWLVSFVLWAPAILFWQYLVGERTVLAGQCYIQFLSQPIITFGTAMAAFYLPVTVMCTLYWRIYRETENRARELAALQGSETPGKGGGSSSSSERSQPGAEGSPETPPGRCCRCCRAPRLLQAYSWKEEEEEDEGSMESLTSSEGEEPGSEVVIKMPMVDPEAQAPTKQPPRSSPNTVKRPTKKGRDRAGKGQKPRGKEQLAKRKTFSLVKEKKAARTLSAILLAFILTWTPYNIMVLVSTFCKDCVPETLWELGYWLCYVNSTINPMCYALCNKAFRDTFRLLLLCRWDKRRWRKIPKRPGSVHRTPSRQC
Experimental: as §1

[3] = target: T3, human m2 muscarinic acetylcholine receptor expressed in CHO cells (Homo sapiens, UniProt P08172); experiment: Inhibition of [3H]-N-methylscopolamine binding to muscarinic m2 receptor; details: 0.2 nM [3H]-N-methylscopolamine
T3 construct: purchased Receptor Biology, Inc; host or cells: CHO cells
T3 sequence (P08172 1-466): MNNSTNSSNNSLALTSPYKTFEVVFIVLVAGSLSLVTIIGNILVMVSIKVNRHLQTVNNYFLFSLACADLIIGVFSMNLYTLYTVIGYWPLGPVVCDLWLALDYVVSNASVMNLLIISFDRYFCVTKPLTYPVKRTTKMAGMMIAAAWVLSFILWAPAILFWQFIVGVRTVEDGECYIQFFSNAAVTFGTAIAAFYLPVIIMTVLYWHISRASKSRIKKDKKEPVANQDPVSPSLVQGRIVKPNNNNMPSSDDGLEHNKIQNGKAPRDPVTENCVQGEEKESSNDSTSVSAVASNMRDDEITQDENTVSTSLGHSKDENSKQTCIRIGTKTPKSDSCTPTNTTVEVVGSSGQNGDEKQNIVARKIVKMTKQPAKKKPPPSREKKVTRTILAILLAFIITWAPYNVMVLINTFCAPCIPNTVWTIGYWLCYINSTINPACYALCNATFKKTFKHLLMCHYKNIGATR
Experimental: as §1

[4] = target: T4, human m4 muscarinic acetylcholine receptor expressed in CHO cells (Homo sapiens, UniProt P08173); experiment: Inhibition of [3H]-N-methylscopolamine binding to muscarinic m4 receptor; details: 0.2 nM [3H]-N-methylscopolamine
T4 construct: purchased Receptor Biology, Inc; host or cells: CHO cells
T4 sequence (P08173 1-479): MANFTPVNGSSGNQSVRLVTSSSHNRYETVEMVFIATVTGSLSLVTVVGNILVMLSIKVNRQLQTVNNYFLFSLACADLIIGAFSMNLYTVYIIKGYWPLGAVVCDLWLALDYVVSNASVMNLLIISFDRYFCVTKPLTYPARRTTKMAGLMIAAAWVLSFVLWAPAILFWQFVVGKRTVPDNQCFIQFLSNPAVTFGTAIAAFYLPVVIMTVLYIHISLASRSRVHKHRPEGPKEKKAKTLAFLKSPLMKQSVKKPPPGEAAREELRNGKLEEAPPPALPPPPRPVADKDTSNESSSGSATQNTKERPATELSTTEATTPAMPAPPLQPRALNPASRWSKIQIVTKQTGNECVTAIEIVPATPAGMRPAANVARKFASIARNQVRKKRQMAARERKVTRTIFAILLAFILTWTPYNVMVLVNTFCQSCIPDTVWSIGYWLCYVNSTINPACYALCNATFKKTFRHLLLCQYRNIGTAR
Experimental: as §1

[5] = target: T5, human m5 muscarinic acetylcholine receptor expressed in CHO cells (Homo sapiens, UniProt P08912); experiment: Inhibition of [3H]-N-methylscopolamine binding to muscarinic m5 receptor; details: 0.2 nM [3H]-N-methylscopolamine
T5 construct: purchased Receptor Biology, Inc; host or cells: CHO cells
T5 sequence (P08912 1-532): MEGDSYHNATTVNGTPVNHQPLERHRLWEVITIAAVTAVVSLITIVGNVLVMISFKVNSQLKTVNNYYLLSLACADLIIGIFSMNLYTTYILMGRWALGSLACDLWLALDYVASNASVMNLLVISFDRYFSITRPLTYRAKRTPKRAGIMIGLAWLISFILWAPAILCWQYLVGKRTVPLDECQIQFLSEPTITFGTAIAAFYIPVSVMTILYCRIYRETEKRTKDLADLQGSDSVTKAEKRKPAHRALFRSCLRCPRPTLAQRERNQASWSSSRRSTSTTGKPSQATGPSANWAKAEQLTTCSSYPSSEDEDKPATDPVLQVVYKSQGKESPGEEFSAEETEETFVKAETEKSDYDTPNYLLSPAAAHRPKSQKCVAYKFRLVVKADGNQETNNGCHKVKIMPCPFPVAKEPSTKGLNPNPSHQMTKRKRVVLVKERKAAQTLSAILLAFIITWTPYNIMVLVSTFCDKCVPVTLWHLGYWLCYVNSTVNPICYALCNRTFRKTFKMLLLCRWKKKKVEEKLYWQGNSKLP
Experimental: as §1

M3 receptor = target: T6, M3 receptor (Canis lupus familiaris, UniProt A0A8I3N190); experiment: Antagonism to M3 receptor: bronchodilation in anesthetized dogs (methacholine provocation test); format: in vivo, beagle dogs; details: inhalation of 1 mg/ml for 10 minutes, methacholine threshold four hours after administration
T6 construct: from tissue; host or cells: whole animal, male beagle dogs (in vivo, airway)
Experimental: The bronchodilation action of inhaled test compound was evaluated by measuring the compounds' inhibitory action on respiratory resistance-increasing reaction induced by a methacholine provocation test. For the experiment, 12 to 36 months old male beagle dogs (weighing 10-15 kg) were used. After being anesthetized by intravenous pentobarbital administration (30 mg/kg), the dogs were intubated cannulae in their trachea. After their respiration became stable, the cannulae were connected with Astograph (TCK-6100H, Chest) and a methacholine provocation test by 3 Hz oscillation method was conducted. […] The methacholine concentration at which the respiratory resistance increased to twice the initial value was recorded as the methacholine reaction threshold value. Before evaluating the test compounds, the methacholine reaction threshold value^1) under no drug treatment was measured at least twice at a week's interval, to select the dogs showing reproducible reaction.
The inhaling administration of each test compound (1 mg/ml) was conducted for 10 minutes under pentobarbital anesthetization (30 mg/kg, i.v.), with the nebulizer in the Astograph. […] The bronchodilator activity (shift value) of each tested compound was determined according to the following equation: […]

T1 sequence (P20309 whole entry): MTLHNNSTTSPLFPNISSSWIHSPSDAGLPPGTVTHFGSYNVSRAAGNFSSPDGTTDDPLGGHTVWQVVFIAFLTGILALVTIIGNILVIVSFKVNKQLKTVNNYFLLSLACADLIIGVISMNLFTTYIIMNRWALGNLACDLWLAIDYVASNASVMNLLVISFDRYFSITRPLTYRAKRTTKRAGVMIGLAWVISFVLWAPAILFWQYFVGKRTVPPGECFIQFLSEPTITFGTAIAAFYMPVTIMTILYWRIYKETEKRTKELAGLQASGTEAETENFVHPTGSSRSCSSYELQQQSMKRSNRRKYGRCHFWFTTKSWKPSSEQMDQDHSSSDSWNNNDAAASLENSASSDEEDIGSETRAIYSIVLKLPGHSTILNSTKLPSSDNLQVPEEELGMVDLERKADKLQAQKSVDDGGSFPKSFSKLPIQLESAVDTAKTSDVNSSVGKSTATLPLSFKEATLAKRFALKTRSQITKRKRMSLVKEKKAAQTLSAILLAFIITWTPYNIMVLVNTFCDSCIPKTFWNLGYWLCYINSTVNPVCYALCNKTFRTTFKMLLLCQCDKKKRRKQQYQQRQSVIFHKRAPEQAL
T6 sequence (A0A8I3N190 1-590): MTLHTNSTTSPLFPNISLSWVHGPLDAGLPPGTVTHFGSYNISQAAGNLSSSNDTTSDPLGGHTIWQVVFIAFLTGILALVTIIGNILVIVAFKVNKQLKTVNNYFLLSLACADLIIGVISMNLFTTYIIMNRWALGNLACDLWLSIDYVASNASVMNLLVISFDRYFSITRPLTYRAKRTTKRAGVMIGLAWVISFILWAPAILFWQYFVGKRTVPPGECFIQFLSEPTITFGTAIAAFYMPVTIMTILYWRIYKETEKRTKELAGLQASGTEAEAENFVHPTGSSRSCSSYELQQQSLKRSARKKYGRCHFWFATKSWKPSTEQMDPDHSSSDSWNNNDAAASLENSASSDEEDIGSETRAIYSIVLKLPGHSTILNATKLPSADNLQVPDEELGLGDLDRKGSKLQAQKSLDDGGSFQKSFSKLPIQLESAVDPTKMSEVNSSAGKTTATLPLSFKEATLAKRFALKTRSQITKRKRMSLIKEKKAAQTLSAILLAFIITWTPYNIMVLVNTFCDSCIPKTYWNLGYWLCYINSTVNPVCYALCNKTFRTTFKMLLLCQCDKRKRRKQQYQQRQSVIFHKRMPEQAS

| SMILES | Ki [1] [nM] | Selectivity m1/m3 [1] [times] | Selectivity m2/m3 [1] [times] | Selectivity m4/m3 [1] [times] | Selectivity m5/m3 [1] [times] | Ki [2] [nM] | Ki [3] [nM] | Ki [4] [nM] | Ki [5] [nM] | Shift (fold) Airway constriction M3 (M3 receptor) [fold] |
| --- | --- | --- | --- | --- | --- | --- | --- | --- | --- | --- |
| CCCCCN1CCC[C@H](CNC(=O)CCNC(=O)CNC(=O)CC(c2ccccc2)(c2ccccc2)c2ccccc2)C1 [Example 6, N-{2-(3-{((3R)-1-pentyl-3-piperidyl)methyl}amino-3-oxopropyl)amino-2-oxoethyl}-3,3,3-triphenylpropanamide] | 1.8 | 480 | 140 | 37 | 46 | 860 | 250 | 66 | 82 |  |
| O=C(NC[C@H]1CCC[N+]2(CCCC2)C1)[C@H]1CCCN1C(=O)[C@@H]1C[C@@H](O)CN1C(=O)CC(c1ccccc1)(c1ccccc1)c1ccccc1.[Cl-] [Example 151, (7R)-7-({({(2R)-1-({(2S,4R)-4-hydroxy-1-(3,3,3-triphenylpropanoyl)-2-pyrrolidinyl}carbonyl)-2-pyrrolidinyl}carbonyl)amino}methyl)-5-azoniaspiro [4.5]decane chloride] | 3.5 | 130 | 130 | 21 | 250 | 450 | 460 | 74 | 890 | >40.0 |
| O=C(CCCCCNC(=O)CC(c1ccccc1)(c1ccccc1)c1ccccc1)NC[C@H]1CCCN(CC2CCCCC2)C1 [Example 28, N-(6-{((3R)-1-cyclohexylmethyl-3-piperidyl)methyl}amino-6-oxohexyl)-3,3,3-triphenylpropanamide] | 1.2 | 110 | 71 | 30 | 180 | 130 | 85 | 36 | 220 |  |
| CCCCCCC[N+]1(C)CCC[C@H](CNC(=O)CCNC(=O)CNC(=O)CC(c2ccccc2)(c2ccccc2)c2ccccc2)C1.[Br-] (stereo partly drawn) [Example 146, (3R)-1-heptyl-1-methyl-3-({(3-{(2-{(3,3,3-triphenylpropanoyl)amino}acetyl)amino}propanoyl)amino}methyl)piperidinium bromide] | 15 | 80 | 67 | 24 | 33 | 1200 | 1000 | 360 | 490 |  |
| O=C(CCNC(=O)[C@H](Cc1c[nH]cn1)NC(=O)CC(c1ccccc1)(c1ccccc1)c1ccccc1)NC[C@H]1CCCN(CC2CCCCC2)C1 [Example 19, N-{(1S)-2-(3-{((3R)-1-cyclohexylmethyl-3-piperidyl)methyl}-amino-3-oxopropyl)amino-1-(1H-imidazol-4-ylmethyl)-2-oxoethyl}-3,3,3-triphenylpropanamide] | 0.75 | 360 | 40 | 11 | 25 | 270 | 30 | 8.1 | 19 |  |
| CC[C@H](C)C[N+]1(CC)CCC[C@@H](CNC(=O)CCCCCNC(=O)CC(c2ccccc2)(c2ccccc2)c2ccccc2)C1.[Cl-] (stereo partly drawn) [Example 150, (3S)-1-ethyl-1-{(2S)-2-methylbutyl}-3-({(6-{(3,3,3-triphenylpropanoyl)amino}hexanoyl)amino}methyl)piperidinium chloride] | 4.7 | 32 | 100 | 66 | 180 | 150 | 490 | 310 | 850 |  |
| CC[N+]1(CC)CCC[C@H](CNC(=O)[C@H]2CCCN2C(=O)[C@@H]2C[C@@H](O)CN2C(=O)CC(c2ccc(Cl)cc2)(c2ccc(Cl)cc2)c2ccc(Cl)cc2)C1.[Cl-] [Example 144, (3R)-1,1-diethyl-3-({({(2R)-1-({(2S,4R)-4-hydroxy-1-{3,3,3-tris-(4-chlorophenyl)propanoyl}-2-pyrrolidinyl}carbonyl)-2-pyrrolidinyl}-carbonyl)amino}methyl)piperidinium chloride] | 1.3 | 85 | 85 | 21 | 180 | 110 | 110 | 27 | 230 |  |
